Measured values from US8765767B2, “Positive allosteric modulators of mGluR2” (Bristol-Myers Squibb Company, priority 2012, dated 2014).

Molecular target: T1, human mGluR2 (Homo sapiens, UniProt Q14416)
T1 construct: expressed in transfected cells; host or cells: HEK293 clonal line
Experiment: mGluR2 cAMP assay (HTRF) in HEK293 cells clonally expressing human mGluR2
Type: cell-based
Settings: HEK293 cells expressing human mGluR2, 1 μM forskolin, 1 μM LY-341495, 30 min
Description: • Cell Culture. Clonally expressed human mGluR2 in HEK293 background was glutamate starved overnight in media without glutamine (GIBCO MEM 12360), containing 10% FBS, 1% penicillin streptomycin. • cAMP Measurement. On the day of the assay, media was removed, cells washed with PBS, cells harvested and pelleted by centrifugation. Cell pellets were resuspended in stimulation buffer without forskolin and counted. A solution of 1.25×10^6 cells/mL was prepared and dispensed to plates using a Combi liquid handler (Thermo). A standard curve was created using a top concentration of cAMP of 1 μM in the stimulation buffer, 1:3 dilutions over 14 points in the absence of cells. Plates were read by time-resolved fluorescence at […] and a ratio was calculated via in house software, (665 nM/618 nM)*10^4. In house software converted the fluorescence value ratios to units of cAMP concentration, which is then used to calculate % inhibition for each test compound. • MGluR2 cAMP Assay Materials and Methods. Compounds were added to white, standard volume 384 non-binding surface plates (Corning 3574). Cells were resuspended in stimulation buffer consisting of Hanks Balanced Salt Solution (14175-095) pH 7.0, 20 mM HEPES, 2.0 mM CaCl2, 5.0 mM MgCl2, and 1 mM IBMX (Sigma 15879), 1 μM forskolin, and 1 μM LY-341495 for 30 min. Buffer without forskolin was used as a negative control. Solutions of D2 and cryptate detection reagents from the CISBIO dynamic cAMP kit (62AM4PEJ) were diluted 1:40 in lysis buffer. Lysis buffer consisted of 50 mM Phosphate Buffer pH 7.0, 800 mM Potassium Fluoride, 0.2% BSA, and 1.0% Triton. Assay reaction was terminated by addition of detection reagents in lysis buffer. One hour later, plates were read on a PE Viewlux. Data was extracted, and concentration response curves generated by fitting the data to a standard 4 parameter logistic equation from which EC50 values were determined.

T1 sequence (Q14416 19-872): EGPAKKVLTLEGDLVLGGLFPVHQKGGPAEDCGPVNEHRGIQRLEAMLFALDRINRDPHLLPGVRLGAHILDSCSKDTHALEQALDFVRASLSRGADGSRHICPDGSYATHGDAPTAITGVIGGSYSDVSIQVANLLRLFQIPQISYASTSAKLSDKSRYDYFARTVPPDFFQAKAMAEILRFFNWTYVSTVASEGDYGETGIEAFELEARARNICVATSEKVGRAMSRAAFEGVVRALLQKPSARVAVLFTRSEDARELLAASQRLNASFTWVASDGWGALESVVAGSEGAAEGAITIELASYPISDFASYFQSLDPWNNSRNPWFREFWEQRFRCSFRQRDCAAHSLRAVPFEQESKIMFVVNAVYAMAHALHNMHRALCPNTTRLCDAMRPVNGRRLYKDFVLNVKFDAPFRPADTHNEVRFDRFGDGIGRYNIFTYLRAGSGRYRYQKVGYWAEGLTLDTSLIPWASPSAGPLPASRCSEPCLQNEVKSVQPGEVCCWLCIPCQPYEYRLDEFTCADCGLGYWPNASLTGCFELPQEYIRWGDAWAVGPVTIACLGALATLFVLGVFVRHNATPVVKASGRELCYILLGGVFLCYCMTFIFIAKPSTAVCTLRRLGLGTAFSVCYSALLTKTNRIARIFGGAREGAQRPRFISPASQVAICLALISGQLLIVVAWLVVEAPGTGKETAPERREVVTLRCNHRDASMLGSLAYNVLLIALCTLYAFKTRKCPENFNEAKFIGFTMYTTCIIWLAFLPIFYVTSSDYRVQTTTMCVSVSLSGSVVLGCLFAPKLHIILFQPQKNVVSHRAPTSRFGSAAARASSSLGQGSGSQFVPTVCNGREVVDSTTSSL

| SMILES | EC50 [nM] |
| --- | --- |
| Fc1ccc([C@@H]2C[C@H]2CNc2ccn3c(CC(F)(F)F)cnc3c2C(F)(F)F)cc1 (stereo in doubt) [Example 32, N-(((1R,2R)-2-(4-Fluorophenyl)cyclopropyl)methyl)-3-(2,2,2-trifluoroethyl)-8-(trifluoromethyl)imidazo[1,2-a]pyridin-7-amine] | 44 |
| Fc1ccc(C2CC2CNc2ccn3c(CC(F)(F)F)cnc3c2C(F)(F)F)cc1 (stereo not drawn) [Example 25, N-((2-(4-Fluorophenyl)cyclopropyl)methyl)-3-(2,2,2-trifluoroethyl)-8-(trifluoromethyl)imidazo[1,2-a]pyridin-7-amine] | 41 |
| N#Cc1ccccc1C1CC1CNc1ccn2c(CC3CC3)nnc2c1Cl (stereo not drawn) [Example 17, 2-(2-(((8-chloro-3-(cyclopropylmethyl)-[1,2,4]triazolo[4,3-a]pyridin-7-yl)amino)methyl)cyclopropyl)benzonitrile] | 6 |
| Fc1ccccc1[C@@H]1C[C@H]1CNc1ccn2c(CC3CC3)nnc2c1Cl [Example 38, 8-Chloro-3-(cyclopropylmethyl)-N-(((1R,2R)-2-(2-fluorophenyl)cyclopropyl)methyl)-[1,2,4]triazolo[4,3-a]pyridin-7-amine] | 4 |
| Clc1c(NC[C@@H]2C[C@H]2c2cccc3c2OCC3)ccn2c(CC3CC3)nnc12 [Example 36, 8-Chloro-3-(cyclopropylmethyl)-N-(((1R,2R)-2-(2,3-dihydrobenzofuran-7-yl)cyclopropyl)methyl)-[1,2,4]triazolo[4,3-a]pyridin-7-amine] | 2 |
| CN(C[C@H]1C[C@@H]1c1ccc(F)cc1)c1ccn2c(CC3CC3)nnc2c1C(F)(F)F [Example 39, 3-(Cyclopropylmethyl)-N-(((1S,2S)-2-(4-fluorophenyl)cyclopropyl)methyl)-N-methyl-8-(trifluoromethyl)-[1,2,4]triazolo[4,3-a]pyridin-7-amine] | 1 |
| COc1cccc(F)c1[C@@H]1C[C@H]1CNc1ccn2c(CC3CC3)nnc2c1Cl [Example 34, 8-Chloro-3-(cyclopropylmethyl)-N-(((1R,2R)-2-(2-fluoro-6-methoxyphenyl)cyclopropyl)methyl)-[1,2,4]triazolo[4,3-a]pyridin-7-amine] | 1 |
| N#Cc1c(NCC2CC2c2ccc(F)cc2)ccn2c(CC(F)(F)F)cnc12 (stereo not drawn) [Example 30, 7-(((2-(4-Fluorophenyl)cyclopropyl)methyl)amino)-3-(2,2,2-trifluoroethyl)imidazo[1,2-a]pyridine-8-carbonitrile] | 108 |
| CC(Nc1ccn2c(CC3CC3)nnc2c1Cl)[C@@H]1C[C@H]1c1ccc(F)cc1 (stereo partly drawn) [Example 14, 8-Chloro-3-(cyclopropylmethyl)-N-(1-((1R,2R)-2-(4-fluorophenyl)cyclopropyl)ethyl)-[1,2,4]triazolo[4,3-a]pyridin-7-amine] | 55 |
| CC(Nc1ccn2c(CC3CC3)nnc2c1Cl)[C@H]1C[C@@H]1c1ccc(F)cc1 (stereo partly drawn) [Example 15, 8-Chloro-3-(cyclopropylmethyl)-N-(1-((1S,2S)-2-(4-fluorophenyl)cyclopropyl)ethyl)-[1,2,4]triazolo[4,3-a]pyridin-7-amine] | 31 |
| N#Cc1c(NCC2CC2c2ccccc2OC(F)(F)F)ccn2c(CC(F)(F)F)cnc12 (stereo not drawn) [Example 28, 3-(2,2,2-Trifluoroethyl)-7-(((2-(2-(trifluoromethoxy)phenyl)cyclopropyl)methyl)amino)imidazo[1,2-a]pyridine-8-carbonitrile] | 59 |
| Clc1c(NC[C@@H]2CCC[C@H]2c2ccccc2)ccn2c(CC3CC3)nnc12 (single isomer, unassigned) [Example 46] | 5 |
| Fc1ccc([C@H]2C[C@@H]2CNc2ccn3c(CC(F)(F)F)nnc3c2C(F)(F)F)cc1 [Example 21, N-(((1S,2S)-2-(4-Fluorophenyl)cyclopropyl)methyl)-3-(2,2,2-trifluoroethyl)-8-(trifluoromethyl)-[1,2,4]triazolo[4,3-a]pyridin-7-amine] | 2 |
| Clc1c(NC[C@@H]2C[C@H]2c2ccccc2)ccn2c(CC3CC3)nnc12 (relative stereo) [Example 4, Trans-8-chloro-3-(cyclopropylmethyl)-N-((2-phenylcyclopropyl)methyl)-[1,2,4]triazolo[4,3-a]pyridin-7-amine] | 5 |

Tested on: mGluR2/3
Experiment: not given
Settings: rats treated with PCP; cited from earlier work

| SMILES | behavioral effects of PCP (hyper-locomotion, working memory deficits) | brain glutamate levels |
| --- | --- | --- |
| N[C@@]1(C(=O)O)CC[C@H]2[C@H](C(=O)O)[C@H]21 [LY-354740] | reversed the behavioral effects of PCP | lowered brain glutamate levels |

Tested on: mGluR2/3
Experiment: not given
Settings: GAD patients; cited from earlier work

| SMILES | therapeutic effect for anxiety |
| --- | --- |
| C[C@H](N)C(=O)N[C@@]1(C(=O)O)CC[C@H]2[C@H](C(=O)O)[C@H]21 [LY-544344] | therapeutic effects |

Tested on: mGluR2/3
Experiment: not given
Settings: schizophrenia patients; cited from earlier work

| SMILES | relief of positive and negative symptoms |
| --- | --- |
| CSCC[C@H](N)C(=O)N[C@@]1(C(=O)O)CS(=O)(=O)[C@H]2[C@H](C(=O)O)[C@H]21 [LY-2140023] | relief of positive and negative symptoms |
